Results taken from the supplement of paper PMC10307832.

How the values were obtained:
Test in all cases: relative viability (nuclei count vs DMSO), 5 days (fraction); higher = more cells survive
[1] = compound: O=C(C[C@H]1NCCC[C@@H]1O)Cn1cnc2cc(Br)c(Cl)cc2c1=O (racemic) [Halofuginone] + COc1cccc2cc(-c3nc([C@H]4CC[C@H](C(=O)O)CC4)n4ncnc(N)c34)[nH]c12 [OSI-027] (partner 0.5 µM)
Summary of the method: (§1)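 Lung cancer cell lines were seeded in 1536-well plates and dosed by pin tool the next day, with either a single drug or a fixed anchor-drug dose combined with five library-drug doses (not always all listed) spaced in √10 steps. Five days later, one step fixed the cells and stained their nuclei (final 0.05% Triton X-100, 1% formaldehyde, 1 ug/ml Hoechst), and nuclei were counted on 4× images. Relative viability is the nuclei count in treated wells divided by the count in vehicle wells, and each value is the median of duplicate plates.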

[2] = compound: COc1cc2c(Oc3ccc4[nH]c(C)cc4c3F)ncnc2cc1OCCCN1CCCC1 [Cediranib] + N=C(N)NC(=N)NCCc1ccccc1 [Phenformin] (partner 250 µM)
Summary of the method: as §1

[3] = compound: Nc1ncn([C@H]2C[C@H](O)[C@@H](CO)O2)c(=O)n1 [Decitabine] + C[C@@H](Oc1cc(-c2cnn(C3CCNCC3)c2)cnc1N)c1c(Cl)ccc(F)c1Cl [Crizotinib] (partner 1 µM)
Summary of the method: as §1

[4] = compound: Nc1ncn([C@H]2C[C@H](O)[C@@H](CO)O2)c(=O)n1 [Decitabine] + CC(=O)c1c(C)c2cnc(Nc3ccc(N4CCNCC4)cn3)nc2n(C2CCCC2)c1=O [Palbociclib] (partner 0.5 µM)
Summary of the method: as §1

Cell Line | relative viability ([1]; first compound 0.001 µM) | relative viability ([1]; first compound 0.003162 µM) | relative viability ([1]; first compound 0.01 µM) | relative viability ([1]; first compound 0.03162 µM) | relative viability ([1]; first compound 0.1 µM) | relative viability ([2]; first compound 0.04 µM) | relative viability ([2]; first compound 0.1265 µM) | relative viability ([2]; first compound 0.4 µM) | relative viability ([2]; first compound 1.265 µM) | relative viability ([2]; first compound 4 µM) | relative viability ([3]; first compound 0.04 µM) | relative viability ([3]; first compound 0.1265 µM) | relative viability ([3]; first compound 0.4 µM) | relative viability ([3]; first compound 1.265 µM) | relative viability ([3]; first compound 4 µM) | relative viability ([4]; first compound 0.04 µM) | relative viability ([4]; first compound 0.1265 µM) | relative viability ([4]; first compound 0.4 µM) | relative viability ([4]; first compound 1.265 µM) | relative viability ([4]; first compound 4 µM)
LU99A | 0.36 | 0.32 | 0.281 | 0.288 | 0.254 | 0.726 | 0.589 | 0.75 | 0.734 | 0.924 | 0.517 | 0.491 | 0.631 | 0.439 | 0.317 | 0.39 | 0.434 | 0.445 | 0.321 | 0.291
NCI-H522 | 0.734 | 0.707 | 0.721 | 0.689 | 0.605 | 0.623 | 0.608 | 0.575 | 0.64 | 0.687 | – | – | – | – | – | 0.97 | 0.803 | 0.817 | 0.634 | 0.533
NCI-H596 | 0.923 | 0.938 | 0.845 | 0.67 | 0.354 | 0.723 | 0.703 | 0.722 | – | 0.718 | 0.939 | 1.02 | 0.353 | 0.772 | 0.755 | – | – | – | – | –
NCI-H1299 | – | – | – | – | – | – | – | – | – | – | 0.979 | 0.991 | 0.956 | 0.85 | 0.856 | – | – | – | – | –
NCI-H1395 | 0.665 | 0.656 | 0.789 | 0.594 | 0.683 | 0.49 | 0.427 | 0.467 | 0.444 | 0.42 | – | – | – | – | – | 0.583 | 0.606 | 0.6 | 0.55 | 0.523
NCI-H1563 | 0.859 | 0.735 | 0.837 | 0.612 | 0.527 | 0.63 | 0.851 | 0.676 | 0.651 | 0.665 | 0.947 | 0.861 | 0.908 | 0.905 | 0.799 | – | – | – | – | –
NCI-H1623 | 0.536 | 0.455 | 0.436 | 0.517 | 0.423 | 0.587 | – | 0.553 | 0.595 | 0.567 | – | – | – | – | – | – | – | – | – | –
NCI-H1648 | 0.247 | 0.217 | 0.242 | 0.275 | 0.262 | – | – | – | – | – | – | – | – | – | – | 0.275 | 0.246 | 0.296 | 0.287 | 0.31
NCI-H1703 | – | – | – | – | – | – | – | – | – | – | 0.397 | 0.419 | 0.214 | 0.263 | 0.134 | – | – | – | – | –
NCI-H1793 | 0.299 | 0.253 | 0.297 | 0.288 | 0.196 | 0.231 | 0.32 | 0.39 | – | 0.393 | – | – | – | – | – | 0.339 | 0.329 | 0.381 | 0.301 | 0.31
NCI-H2342 | 0.565 | 0.622 | 0.574 | 0.7 | 0.618 | 0.563 | 0.825 | 0.635 | 0.466 | 0.58 | – | – | – | – | – | 0.641 | 0.54 | 0.548 | 0.463 | 0.508
SW 900 | 0.68 | 0.628 | 0.518 | 0.494 | 0.293 | 0.658 | 0.604 | 0.698 | 0.496 | 0.645 | – | – | – | – | – | 0.457 | 0.506 | 0.314 | 0.305 | 0.348
